Assay results as given in patent publication US20080176827A1, “New Pyridine Analogues VII 543” (ASTRAZENECA AB, priority 2007, published 2008).

Target: T1, P2Y12 receptor (Homo sapiens, UniProt Q9H244)
T1 construct: expressed in transfected cells; host or cells: CHO cells (membranes)
Assay: Functional inhibition of 2-Me-S-ADP induced P2Y12 signalling (35S-GTPγS binding, membranes from P2Y12 transfected CHO-cells)
Assay type: biochemical
Conditions: EC80 agonist, CHO-cell membranes, read-out: IC50
Description: Functional inhibition of-the P2Y12 receptor can be measured by in vitro assays using cell membranes from P2Y12 transfected CHO-cells, the methodology is indicated below. […] The reaction was allowed to proceed at 30° C. for 45 min. Samples were then transferred on to GF/B filters using a cell harvester and washed with wash buffer (50 mM Tris (pH 7.4), 5 mM MgCl2, 50 mM NaCl). Filters were then covered with scintilant and counted for the amount of ^35S-GTPγS retained by the filter. Maximum activity was that determined in the presence of the agonist and minimum activity in the absence of the agonist following subtraction of the value determined for non-specific activity. The effect of compounds at various concentrations was plotted according to the equation […]))) and IC50 estimated where A is the bottom plateau of the curve i.e. the final minimum y value B is the top of the plateau of the curve i.e. the final maximum y value C is the x value at the middle of the curve. […] Y is the original known y values. […] The reaction was allowed to proceed at 30° C. for 45 min. Samples were then transferred on to GF/B filters using a cell harvester and washed with wash buffer (50 mM Tris (pH 7.4), 5 mM MgCl2, 50 mM NaCl). Filters were then covered with scintilant and counted for the amount of ^35S-GTPγS retained by the filter. Maximum activity was that determined in the presence of the agonist and minimum activity in the absence of the agonist following subtraction of the value determined for non-specific activity. The effect of compounds at various concentrations was plotted according to the equation […]))) and IC50 estimated where A is the bottom plateau of the curve i.e. the final minimum y value B is the top of the plateau of the curve i.e. the final maximum y value C is the x value at the middle of the curve. […] Y is the original known y values.

T1 sequence (Q9H244 whole entry): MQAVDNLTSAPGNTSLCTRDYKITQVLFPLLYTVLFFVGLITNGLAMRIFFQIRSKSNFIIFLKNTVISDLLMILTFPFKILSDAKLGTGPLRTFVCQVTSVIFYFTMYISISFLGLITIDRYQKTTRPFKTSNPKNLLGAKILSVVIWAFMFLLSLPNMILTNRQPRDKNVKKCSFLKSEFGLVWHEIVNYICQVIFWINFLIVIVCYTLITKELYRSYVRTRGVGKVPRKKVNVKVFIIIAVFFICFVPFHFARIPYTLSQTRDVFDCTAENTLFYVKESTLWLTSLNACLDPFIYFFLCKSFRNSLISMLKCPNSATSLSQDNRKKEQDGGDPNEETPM

For `CCOC(=O)c1cc(C#N)c(N2CCC(C(=O)NS(=O)(=O)Cc3ccccc3)C(C)C2)nc1C` (stereo not shown) [Example 5, Ethyl 6-{4-[(benzylsulfonyl)carbamoyl]-3-methylpiperidin-1-yl}-5-cyano-2-methylnicotinate], which IC50 is on record?
Its IC50 is 0.07 µM.

Same assay, conditions: EC80 agonist, CHO-cell membranes, value given in each example, read-out: GTPγS(IC50 μM)

Which IC50 does the source give for `CCOC(=O)c1cc(C#N)c(N2CCC(CC(=O)NS(=O)(=O)Cc3ccccc3)C2)nc1C` (stereo not shown) [Example 1, Ethyl 6-(3-{2-[(benzylsulfonyl)amino]-2-oxoethyl}pyrrolidin-1-yl)-5-cyano-2-methylnicotinate] here?
The IC50 was 0.143 µM.

`CCOC(=O)c1cc(C#N)c(N2CCC(CC(=O)NS(=O)(=O)CCc3ccccc3)C2)nc1C` (stereo not shown) [Example 2, Ethyl 5-cyano-2-methyl-6-[3-(2-oxo-2-{[(2-phenylethyl)sulfonyl]amino}ethyl)pyrrolidin-1-yl]nicotinate] was tested. Which IC50 did it give?
Its IC50 is 0.12 µM.

For `Cc1nc(N2CCC(C(=O)NS(=O)(=O)Cc3ccc(F)cc3)CC2)c(C#N)cc1C(=O)OCC(F)(F)F` [Example 3, 2,2,2-Trifluoroethyl 5-cyano-6-(4-{[(4-fluorobenzyl)sulfonyl]carbamoyl}piperidin-1-yl)-2-methylnicotinate], which IC50 is on record?
The IC50 was 0.024 µM.

For `CCOC(=O)c1cc(C#N)c(N2CC(C(=O)NS(=O)(=O)Cc3cc(C)ccc3F)C2)nc1C` [Example 4, Ethyl 5-cyano-6-(3-{[(2-fluoro-5-methylbenzyl)sulfonyl]carbamoyl}azetidin-1-yl)-2-methylnicotinate], which IC50 is on record?
Its IC50 is 0.018 µM.

With `CCOC(=O)c1cc(C#N)c(N2CCC(C(=O)NS(=O)(=O)Cc3ccccc3)C(C)C2)nc1C` (stereo not shown) [Example 5, Ethyl 6-{4-[(benzylsulfonyl)carbamoyl]-3-methylpiperidin-1-yl}-5-cyano-2-methylnicotinate] as the compound, how does the IC50 read?
Its IC50 is 0.067 µM.

Which IC50 does the source give for `CCOC(=O)c1cc(C#N)c(N2CCC(C(=O)NS(=O)(=O)Cc3ccccc3)CC2)nc1NC` [Example 6, Ethyl 6-{4-[(benzylsulfonyl)carbamoyl]piperidin-1-yl}-5-cyano-2-(methylamino)nicotinate] here?
Its IC50 is 0.044 µM.

How did the IC50 turn out when `CCOC(=O)c1cc(C#N)c(N2CCC(C(=O)NS(=O)(=O)Cc3cc(C)ccc3F)CC2)nc1C` [Example 7, Ethyl 5-cyano-6-(4-{[(2-fluoro-5-methylbenzyl)sulfonyl]carbamoyl}piperidin-1-yl)-2-methylnicotinate] was run?
Its IC50 is 0.035 µM.

`CCOC(=O)c1cc(C#N)c(N2CCC(C(=O)NS(=O)(=O)Cc3cccc(OC)c3)CC2)nc1C` [Example 8, Ethyl 5-cyano-6-(4-{[(3-methoxybenzyl)sulfonyl]carbamoyl}piperidin-1-yl)-2-methylnicotinate] was tested. Which IC50 did it give?
Its IC50 is 0.074 µM.

For `CCOC(=O)c1cc(C#N)c(N2CC(C(=O)NS(=O)(=O)Cc3c(F)cccc3F)C2)nc1CC` [Example 9, Ethyl 5-cyano-6-(3-{[(2,6-difluorobenzyl)sulfonyl]carbamoyl}azetidin-1-yl)-2-ethylnicotinate], which IC50 is on record?
Its IC50 is 0.046 µM.

`CCOC(=O)c1cc(C#N)c(N2CC(C(=O)NS(=O)(=O)Cc3ccc(F)c(C)c3)C2)nc1CC` [Example 10, Ethyl 5-cyano-2-ethyl-6-(3-{[(4-fluoro-3-methylbenzyl)sulfonyl]carbamoyl}azetidin-1-yl)nicotinate] was tested. Which IC50 did it give?
Its IC50 is 0.064 µM.

Which IC50 does the source give for `CCOC(=O)c1cc(C#N)c(N2CC(C(=O)NS(=O)(=O)Cc3ccc(F)cc3Cl)C2)nc1CC` [Example 11, Ethyl 6-(3-{[(2-chloro-4-fluorobenzyl)sulfonyl]carbamoyl}azetidin-1-yl)-5-cyano-2-ethylnicotinate] here?
The IC50 was 0.036 µM.

Which IC50 does the source give for `CCOC(=O)c1cc(C#N)c(N2CCC(C(=O)NS(=O)(=O)Cc3cc(F)ccc3C)CC2)nc1C` [Example 12, Ethyl 5-cyano-6-(4-{[(5-fluoro-2-methylbenzyl)sulfonyl]carbamoyl}piperidin-1-yl)-2-methylnicotinate] here?
Its IC50 is 0.49 µM.

`CCOC(=O)c1cc(C#N)c(N2CCC(C(=O)NS(=O)(=O)Cc3c(F)ccc(F)c3F)CC2)nc1C` [Example 13, ethyl 5-cyano-2-methyl-6-(4-{[(2,3,6-trifluorobenzyl)sulfonyl]carbamoyl}piperidin-1-yl)nicotinate] was tested. Which IC50 did it give?
The IC50 was 0.071 µM.

How did the IC50 turn out when `CCOC(=O)c1cc(C#N)c(N2CCC(C(=O)NS(=O)(=O)Cc3ccc(F)cc3F)CC2)nc1C` [Example 14, Ethyl 5-cyano-6-(4-{[(2,4-difluorobenzyl)sulfonyl]carbamoyl}piperidin-1-yl)-2-methylnicotinate] was run?
Its IC50 is 0.016 µM.

For `CCOC(=O)c1cc(C#N)c(N2CCC(C(=O)NS(=O)(=O)Cc3c(F)cccc3F)CC2)nc1CC` [Example 15, Ethyl 5-cyano-6-(4-{[(2,6-difluorobenzyl)sulfonyl]carbamoyl}piperidin-1-yl)-2-ethylnicotinate], which IC50 is on record?
The IC50 was 0.048 µM.

Which IC50 does the source give for `CCOC(=O)c1cc(C#N)c(N2CCC(C(=O)NS(=O)(=O)Cc3ccc(F)cc3Cl)CC2)nc1CC` [Example 16, Ethyl 6-(4-{[(2-chloro-4-fluorobenzyl)sulfonyl]carbamoyl}piperidin-1-yl)-5-cyano-2-ethylnicotinate] here?
The IC50 was 0.211 µM.

Which IC50 does the source give for `CCOC(=O)c1cc(C#N)c(N2CCC(C(=O)NS(=O)(=O)Cc3c(F)ccc(F)c3F)CC2)nc1CC` [Example 17, Ethyl 5-cyano-2-ethyl-6-(4-{[(2,3,6-trifluorobenzyl)sulfonyl]carbamoyl}piperidin-1-yl)nicotinate] here?
Its IC50 is 0.097 µM.

`CCOC(=O)c1cc(C#N)c(N2CCC(C(=O)NS(=O)(=O)Cc3ccc(F)cc3F)CC2)nc1CC` [Example 18, Ethyl 5-cyano-6-(4-{[(2,4-difluorobenzyl)sulfonyl]carbamoyl}piperidin-1-yl)-2-ethylnicotinate] was tested. Which IC50 did it give?
The IC50 was 0.02 µM.

How did the IC50 turn out when `CCOC(=O)c1cc(C#N)c(N2CC(C(=O)NS(=O)(=O)Cc3ccc(F)cc3F)C2)nc1C` [Example 20, Ethyl 5-cyano-6-(3-{[(2,4-difluorobenzyl)sulfonyl]carbamoyl}azetidin-1-yl)-2-methylnicotinate] was run?
Its IC50 is 0.035 µM.

`CCOC(=O)c1cc(C#N)c(N2CC(C(=O)NS(=O)(=O)Cc3ccc(F)cc3F)C2)nc1CC` [Example 21, Ethyl 5-cyano-6-(3-{[(2,4-difluorobenzyl)sulfonyl]carbamoyl}azetidin-1-yl)-2-ethylnicotinate] was tested. Which IC50 did it give?
Its IC50 is 0.03 µM.

`CCOC(=O)c1cc(C#N)c(N2CC(C(=O)NS(=O)(=O)Cc3ccc(F)cc3)C2)nc1CC` [Example 22, Ethyl 5-cyano-2-ethyl-6-(3-{[(4-fluorobenzyl)sulfonyl]carbamoyl}azetidin-1-yl)nicotinate] was tested. Which IC50 did it give?
Its IC50 is 0.041 µM.

For `CCOC(=O)c1cc(C#N)c(N2CC(C(=O)NS(=O)(=O)Cc3ccc(Cl)cc3)C2)nc1CC` [Example 23, Ethyl 6-(3-{[(4-chlorobenzyl)sulfonyl]carbamoyl}azetidin-1-yl)-5-cyano-2-ethylnicotinate], which IC50 is on record?
The IC50 was 0.022 µM.

How did the IC50 turn out when `CCOC(=O)c1cc(C#N)c(N2CCC(C(=O)NS(=O)(=O)Cc3ccc(F)cc3)CC2)nc1CC` [Example 24, Ethyl 5-cyano-2-ethyl-6-(4-{[(4-fluorobenzyl)sulfonyl]carbamoyl}piperidin-1-yl)nicotinate] was run?
The IC50 was 0.036 µM.

With `CCOC(=O)c1cc(C#N)c(N2CCC(C(=O)NS(=O)(=O)Cc3ccc(Cl)cc3)CC2)nc1CC` [Example 25, Ethyl 6-(4-{[(4-chlorobenzyl)sulfonyl]carbamoyl}piperidin-1-yl)-5-cyano-2-ethylnicotinate] as the compound, how does the IC50 read?
The IC50 was 0.04 µM.

Which IC50 does the source give for `CCOC(=O)c1cc(C#N)c(N2CC(C(=O)NS(=O)(=O)Cc3ccccc3F)C2)nc1C` [Example 26, Ethyl 5-cyano-6-(3-{[(2-fluorobenzyl)sulfonyl]carbamoyl}azetidin-1-yl)-2-methylnicotinate] here?
Its IC50 is 0.035 µM.

With `CCOC(=O)c1cc(C#N)c(N2CCC(C(=O)NS(=O)(=O)Cc3ccccc3F)CC2)nc1C` [Example 27, Ethyl 5-cyano-6-(4-{[(2-fluorobenzyl)sulfonyl]carbamoyl}piperidin-1-yl)-2-methylnicotinate] as the compound, how does the IC50 read?
Its IC50 is 0.026 µM.

`CCOC(=O)c1cc(C#N)c(N2CCC(C(=O)NS(=O)(=O)Cc3ccccc3)C(CCC(=O)OCc3ccccc3)C2)nc1C` (stereo not shown) [Example 28, Ethyl 6-{3-[3-(benzyloxy)-3-oxopropyl]-4-[(benzylsulfonyl)carbamoyl]piperidin-1-yl}-5-cyano-2-methylnicotinate] was tested. Which IC50 did it give?
Its IC50 is 0.442 µM.

How did the IC50 turn out when `CCOC(=O)c1cc(C#N)c(N2CCC(C(=O)NS(=O)(=O)Cc3ccc(F)cc3F)C(CCC(=O)OCc3ccccc3)C2)nc1C` (stereo not shown) [Example 29, Ethyl 6-(3-[3-(benzyloxy)-3-oxopropyl]-4-{[(2,4-difluorobenzyl)sulfonyl]carbamoyl}piperidin-1-yl)-5-cyano-2-methylnicotinate] was run?
Its IC50 is 0.382 µM.

For `CCOC(=O)c1cc(C#N)c(N2CCC(C(=O)NS(=O)(=O)Cc3ccccc3)C(CCC(=O)O)C2)nc1C` (stereo not shown) [Example 30, 3-{4-[(Benzylsulfonyl)carbamoyl]-1-[3-cyano-5-(ethoxycarbonyl)-6-methylpyridin-2-yl]piperidin-3-yl}propanoic Acid], which IC50 is on record?
Its IC50 is 0.057 µM.

Which IC50 does the source give for “Ethyl 6-(4-{[(4-chloro-2-fluorobenzyl)sulfonyl]carbamoyl}piperidin-1-yl)-5-cyano-2-ethylnicotinate [Example 19]” here?
The IC50 was 0.01 µM.
